Patent US8329645B2, “Polymyxin derivatives and uses thereof” (priority 2008, dated 2012)
In brackets after ≈: the same amount, converted by molar mass. Where a SMILES comes first, the peptide text is derived from it. Bridges are numbered along the chain shown (N, C = ends). [ ]: non-standard residue; d: D form. The star is where a group is joined. Decanoyl = CCCCCCCCCC(=O)*; Octanoyl = CCCCCCCC(=O)*; Dab = NCC[C@H](N)C(=O)O; Abu = CC[C@H](N)C(=O)O

Tests used:
[1] = tested on: E. coli F18; assay type: cell-based, Escherichia coli
Procedure: The MIC values of NAB 739, NAB 740, and NAB7061 were determined by using the agar dilution method according to the CLSI protocol M7-A7. Polymyxin B sulfate (Sigma-Aldrich, St. Louis, Mo., USA) was used as a control. […]; two-fold increments) of the test substances were used. The bacterial test strains originated from ATCC (10 strains), CCUG (11 strains), and NCTC (3 strains). Fourteen (14) strains (the F-strains) were purchased from Mobidiag Ltd., Helsinki, Finland. Besides bacteria, the MIC was also determined for the yeast Candida albicans (ATCC 28366 from ATCC).
The inocula were prepared by adjusting the bacterial suspensions to a density equivalent to OD546 nm˜0.3 (˜10^8 CFU/ml˜0.5 McFarland) the yeast suspension to a density equivalent to OD546 nm˜0.75 (˜2×10^7 CFU/ml)._The suspensions were diluted to 10^7 CFU/ml. The plates were inoculated by using a Denley Multipoint Inoculator, 1 μl per spot corresponding to approx. 10^4 CFU/spot. Plates were incubated for 16-20 hours at 35° C.

[2] = tested on: Pseudomonas aeruginosa ATCC 27853; experiment: Growth inhibition around wells on LB agar plates; assay type: cell-based; conditions: Ps. aeruginosa ATCC 27853
In short: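 Activity against Pseudomonas aeruginosa ATCC 27853 was assessed by agar well diffusion on LB plates. A suspension of about 10^8 cells/ml in 0.9% NaCl was spread over the agar and the excess removed. Once the surface had dried, 2 mm wells were drilled and filled with peptide dissolved in 0.9% NaCl. Plates were incubated 18 h at 37° C, and inhibition zone diameters were converted to areas in square mm.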

[3] = tested on: Acinetobacter baumannii ATCC 19606; experiment: Growth inhibition around wells on LB agar plates; assay type: cell-based; conditions: A. baumannii ATCC 19606
[4] = target: brush-border membrane (BBM) from the renal cortex; experiment: Inhibition of binding of radiolabelled gentamycin to brush-border membrane vesicles; conditions: rat renal cortex BBM vesicles; 20 μM [3H] gentamycin; 60 min at 4° C.
From the text: The binding of the compounds according to this invention to isolated brush-border membrane (BBM) from the renal cortex can be measured indirectly by measuring their ability to inhibit the binding of radiolabelled gentamycin to BBM. Accordingly, the compounds according to this invention that have less affinity to BBM than for example polymyxin B inhibit the binding of radiolabelled gentamycin to a lesser degree than does polymyxin B.
BBM was isolated from the renal cortex of male albino rats by using the Mg^2+/EGTA precipitation technique as described by Nagai et al. (2006). The binding of gentamycin was measured, according to the method described by Nagai et al. (2006) by incubating BBM vesicles (20 μl) in 10 mM HEPES (pH 7.5) with 300 mM mannitol in the presence of 20 μM [^3H] gentamycin (American Radiolabeled Chemicals, Inc. (St. Louis, Mo., U.S.A.) with or without the compound to be tested or a positive control. After an incubation of 60 min at 4° C., 1 ml of ice-cold buffer described above was added, and the mixture was filtered through a Millipore filter (0.45 μm; HAWP). The filter was washed with the buffer and the radioactivity remaining in the filter was measured by using a liquid scintillation counter. The IC50 values were determined as in Nagai et al. (2006) using the Hill equation.

[5] = tested on: E. coli IH3080; experiment: Sensitization to rifampin: growth inhibition around wells on LB plates containing rifampin; assay type: cell-based, Escherichia coli; conditions: 4 μg of compound
[6] = tested on: E. coli IH3080; experiment: Growth inhibition around wells on LB agar plates; assay type: cell-based, Escherichia coli
In short: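 Growth inhibition of encapsulated E. coli IH3080 (K1:O018) was assessed on LB agar plates. A suspension of about 10^8 cells/ml in 0.9% NaCl, made from an overnight LB agar culture, was spread across the plate surface and the excess removed. After drying, 2 mm wells were drilled, with 0.9% NaCl as control. Following 18 h at 37° C., inhibition zone diameters around wells were converted to areas in square mm.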

[7] = tested on: K. pneumoniae ATCC13883
In short: (§1)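 Read-out: MIC taken from the E-strip scale. Testing followed the manufacturer's instructions for strip use.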

[8] = tested on: E. coli ATCC25922
In short: as §1

Row | Compound | MIC [1] [µg/mL] | growth inhibition around a well ([2]; 4 μg) [square millimeters] | growth inhibition around a well ([2]; 10 μg) [square millimeters] | growth inhibition around a well ([3]; 4 μg) [square millimeters] | growth inhibition around a well ([3]; 10 μg) [square millimeters] | IC50 [4] [µM] | growth inhibition around a well in the presence of rifampin ([5]; rifampin 0 μg/ml) [square millimeters] | growth inhibition around a well in the presence of rifampin ([5]; rifampin 0.1 μg/ml) [square millimeters] | growth inhibition around a well in the presence of rifampin ([5]; rifampin 1.0 μg/ml) [square millimeters] | growth inhibition around a well ([6]; 10 μg of compound per well) [square millimeters] | MIC of NAB7061 ([7]; ATCC 13883) [µg/mL] | MIC of NAB7061 ([8]; ATCC 25922) [µg/mL] | growth inhibition around a well ([6]; 4 μg of compound per well) [square millimeters] | Sensitization factor to antibiotic (MIC without / with 4 μg/ml of NAB 7061) ([7]; K. pneumoniae ATCC13883) | Sensitization factor to antibiotic (MIC without / with 4 μg/ml of NAB 7061) ([8]; E. coli ATCC25922) | growth inhibition around a well ([6]; 4 μg of compound per well, listed as Polymyxin B sulfate) [square millimeters]
1 | CCCCCCCC(=O)N[C@H](C(=O)N[C@H](CO)C(=O)N[C@H]1CCNC(=O)[C@H]([C@@H](C)O)NC(=O)[C@H](CCN)NC(=O)[C@H](CCN)NC(=O)[C@H](CC(C)C)NC(=O)[C@@H](Cc2ccccc2)NC(=O)[C@H](CCN)NC1=O)[C@@H](C)O [NAB 739, OA-Thr-DSer-cy[Dab-Dab-DPhe-Leu-Dab-Dab-Thr-]] (Octanoyl-T[dS][Dab][Dab][dF]L[Dab][Dab]T; lactam 3-C) | 1 (≈ 0.929 µM) | 38 | 79 | 113 | 177 | 264 ± 91 | 133 | 177 | 201 |  |  |  |  |  |  | 
2 | CCCCCCCCCC(=O)N[C@H](C(=O)N[C@H](CO)C(=O)N[C@H]1CCNC(=O)[C@H]([C@@H](C)O)NC(=O)[C@H](CCN)NC(=O)[C@H](CCN)NC(=O)[C@H](CC(C)C)NC(=O)[C@@H](Cc2ccccc2)NC(=O)[C@H](CCN)NC1=O)[C@@H](C)O [NAB 740, DA-Thr-DSer-cy[Dab-Dab-DPhe-Leu-Dab-Dab-Thr-]] (Decanoyl-T[dS][Dab][Dab][dF]L[Dab][Dab]T; lactam 3-C) | 2 (≈ 1.81 µM) | 64 | 133 | 133 | 201 | 198 ± 49 | 95 | 95 | 95 | 133 |  |  |  |  |  | 
3 | CCCCCCCC(=O)N[C@H](C(=O)N[C@@H](CC)C(=O)N[C@H]1CCNC(=O)[C@H]([C@@H](C)O)NC(=O)[C@H](CCN)NC(=O)[C@H](CCN)NC(=O)[C@H](CC(C)C)NC(=O)[C@@H](Cc2ccccc2)NC(=O)[C@H](CCN)NC1=O)[C@@H](C)O [NAB 7061, OA-Thr-Abu-cy[Dab-Dab-DPhe-Leu-Dab-Dab-Thr-]] (Octanoyl-T[Abu][Dab][Dab][dF]L[Dab][Dab]T; lactam 3-C) | >32 | 0 | 0 | 0 | 0 |  | 0 |  |  |  | > 16 | 16 | 0 |  |  | 
4 | Polymyxin B [reference compound] | 0.5 |  | 133 |  |  | 39.3 ± 5.5 | 79 | 95 | 104 |  |  |  |  | 1 | 5 | 95
